Some test systems named below: CAKI-1; COLO 205; DU-145; HCC 2998; HCT-15; K562; KM12; MDA-MB-231; MDA-N; OVCAR-4; OVCAR-8; RPMI-8226; RXF 393; SF-295; SK-MEL-28; SNB-19; SNB-75; SR; SW-620; U-251.
Test in all cases: growth of human tumour cells (NCI), 48 h

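Assay format: 96-well plates, 48-hour exposure. GI50 is the concentration that inhibits growth by half.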 The source made the active and inactive calls. Cut-off read from the data, not from the text of the source: active = GI50 up to about 1.1 µM and inactive = higher. Where only a bound is given, the exact number is not on record here.

As to `Nc1ccn(C2OC(CO)C(O)C2O)c(=O)n1` (centres undefined), the GI50 was 1.04 µM (active) with CAKI-1; 139 µM (inactive) with COLO 205; 1.74 µM (inactive) in the test on DU-145; 107 µM (inactive) with HCC 2998; 73.5 µM with HCT-15; 14.6 µM (inactive) with K562. Moreover, the GI50 with KM12 was 468 µM (inactive); in the test on MDA-MB-231, 196 µM (inactive); with MDA-N, 7.45 µM (inactive); in the test with OVCAR-4, 457 µM (inactive); with OVCAR-8, 0.818 µM (active); in the test on RPMI-8226 it was 337 µM (inactive). For the same compound, the GI50 in the test on RXF 393 is 191 µM (inactive); in the test on SF-295, 12.8 µM (inactive); in the test on SK-MEL-28, 68.2 µM (inactive); with SNB-19, 7.98 µM (inactive); with SNB-75, 308 µM (inactive); in the test with SR, 0.23 µM (active). For the same compound, the GI50 in the test on SW-620 was 31.4 µM (inactive); in the test on U-251 it was 8.89 µM (inactive).

As to `O=C(/C=C/c1ccc(OCc2ccccc2)c(OCc2ccccc2)c1)OCc1ccccc1`, the GI50 in the test with CAKI-1 was > 100 µM (inactive); with COLO 205, > 100 µM (inactive); in the test on DU-145, > 100 µM (inactive); with HCC 2998 it was > 100 µM (inactive); in the test with HCT-15, greater than 100 µM; with K562, > 100 µM (inactive). Also, the GI50 in the test with KM12, with MDA-MB-231, with MDA-N, in the test on OVCAR-4, in the test on OVCAR-8 and in the test on RPMI-8226 was > 100 µM (inactive) throughout. The GI50 in the test on RXF 393, in the test with SF-295, in the test on SK-MEL-28, with SNB-19, with SNB-75 and in the test with SR was > 100 µM (inactive) throughout. Further, the GI50 in the test on SW-620 and with U-251 was > 100 µM (inactive) each time.

With `O=c1oc2ccccc2cc1-c1ccc([N+](=O)[O-])cc1`, the GI50 with CAKI-1 was > 100 µM (inactive); in the test on COLO 205, > 100 µM (inactive); in the test on DU-145 it was > 100 µM (inactive); with HCC 2998 it was > 100 µM (inactive); in the test on HCT-15 it was greater than 100 µM; with K562, > 100 µM (inactive). Further, the GI50 in the test on KM12 is > 100 µM (inactive); in the test on MDA-MB-231 it was > 100 µM (inactive); with MDA-N, > 100 µM (inactive); in the test on OVCAR-4, > 100 µM (inactive); in the test with OVCAR-8, 54 µM (inactive); in the test with RPMI-8226, > 100 µM (inactive). Besides, the GI50 in the test on RXF 393 is > 100 µM (inactive); with SF-295, 83.6 µM (inactive); with SK-MEL-28, > 100 µM (inactive); in the test with SNB-19 it was 14.7 µM (inactive); with SNB-75 it was > 100 µM (inactive); in the test on SR it was 57.9 µM (inactive). In addition, the GI50 in the test with SW-620 was 25.8 µM (inactive); in the test on U-251, 9.53 µM (inactive).

For `O=C(O)c1[nH]c(=O)[nH]c(=O)c1CN1CCCCC1`, the GI50 was > 100 µM (inactive) in the test on CAKI-1; > 100 µM (inactive) in the test with COLO 205; > 100 µM (inactive) with DU-145; > 100 µM (inactive) with HCC 2998; greater than 100 µM in the test with HCT-15; > 100 µM (inactive) in the test on K562. The GI50 with KM12, in the test on MDA-MB-231, in the test on MDA-N, in the test with OVCAR-4, in the test on OVCAR-8 and with RPMI-8226 was > 100 µM (inactive) each time. The GI50 in the test with RXF 393, with SF-295, in the test with SK-MEL-28, in the test on SNB-19, with SNB-75 and in the test with SR was > 100 µM (inactive) throughout. Further, the GI50 with SW-620 and in the test with U-251 was > 100 µM (inactive) in each case.

Turning to `O=C1C=CC2(C=C1)O[C@H](Cc1ccccc1)[C@@H](Cc1ccccc1)O2`, the GI50 with CAKI-1 is 0.484 µM (active); with COLO 205, 1.55 µM (inactive); in the test with DU-145 it was 1.26 µM (inactive); with HCC 2998 it was 2.64 µM (inactive); with HCT-15 it was 0.243 µM; in the test on K562, 0.388 µM (active). For the same compound, the GI50 in the test with KM12 was 1.69 µM (inactive); with MDA-MB-231 it was 1.12 µM (active); in the test on MDA-N, 0.246 µM (active); with OVCAR-4, 0.347 µM (active); in the test with OVCAR-8 it was 0.193 µM (active); in the test with RPMI-8226, 0.177 µM (active). Besides, the GI50 in the test with RXF 393 was 0.26 µM (active); in the test on SF-295 it was 2.17 µM (inactive); with SK-MEL-28, 0.887 µM (active); in the test on SNB-19, 2.11 µM (inactive); in the test with SNB-75, 2.91 µM (inactive); with SR, 0.11 µM (active). Further, the GI50 in the test on SW-620 was 0.137 µM (active); in the test with U-251 it was 1.05 µM (active).

On to `Cc1cc(C)c(S(=O)(=O)N(CCCN)OCCCN)c(C)c1`, for which the GI50 in the test on CAKI-1, in the test on COLO 205, in the test on DU-145, with HCC 2998, in the test with K562 and in the test with KM12 was > 100 µM (inactive) throughout. In addition, the GI50 in the test on MDA-MB-231, in the test on MDA-N, with OVCAR-4, with OVCAR-8, in the test with RPMI-8226 and in the test with RXF 393 was > 100 µM (inactive) throughout. For the same compound, the GI50 with SF-295, in the test with SK-MEL-28, with SNB-19, with SNB-75, in the test on SR and in the test with SW-620 was > 100 µM (inactive) throughout. Also, the GI50 in the test with U-251 was > 100 µM (inactive).

`COc1ccc(OC)c(C(=O)c2cccc(C(=O)c3cc(OC)ccc3OC)n2)c1`: the GI50 in the test on CAKI-1 was 71.8 µM (inactive); in the test with COLO 205 it was 32.1 µM (inactive); in the test with DU-145, 93.1 µM (inactive); in the test with HCC 2998, 46.9 µM (inactive); in the test with HCT-15, 33.1 µM; in the test with K562, 22.3 µM (inactive). Moreover, the GI50 with KM12 was 33.9 µM (inactive); with MDA-MB-231, 58.7 µM (inactive); with MDA-N, 17 µM (inactive); in the test on OVCAR-4, > 100 µM (inactive); in the test on OVCAR-8 it was 50.1 µM (inactive); with RXF 393, 5.12 µM (inactive). In addition, the GI50 is 29.9 µM (inactive) in the test with SF-295; 41 µM (inactive) in the test on SK-MEL-28; 43.3 µM (inactive) in the test on SNB-19; 19.9 µM (inactive) in the test with SNB-75; 32.7 µM (inactive) in the test with SR; 39.6 µM (inactive) in the test with SW-620. Also, the GI50 in the test with U-251 was 27.4 µM (inactive).

Take `CSc1ccc(/C=C2\N=C(c3ccccc3)N(/N=C3\C(=O)Nc4ccccc43)C2=O)cc1`: the GI50 in the test on CAKI-1 was > 100 µM (inactive); with COLO 205 it was > 100 µM (inactive); with DU-145, > 100 µM (inactive); in the test on HCC 2998, > 100 µM (inactive); with HCT-15 it was greater than 100 µM; in the test with K562, > 100 µM (inactive). Moreover, the GI50 with KM12 is > 100 µM (inactive); in the test with MDA-MB-231, > 100 µM (inactive); with MDA-N it was > 100 µM (inactive); in the test on OVCAR-4, > 100 µM (inactive); in the test with OVCAR-8, 88.3 µM (inactive); in the test with RXF 393 it was > 100 µM (inactive). Also, the GI50 in the test on SF-295 was > 100 µM (inactive); with SK-MEL-28, > 100 µM (inactive); with SNB-19, > 100 µM (inactive); with SNB-75 it was > 100 µM (inactive); in the test on SR it was 22.6 µM (inactive); in the test with SW-620, > 100 µM (inactive). Also, in the test on U-251, the GI50 is > 100 µM (inactive).

Regarding `CCOC(=O)C1=CNC(C(=O)OCC)C1c1cccn1-c1ccccc1` (centres undefined), the GI50 in the test on CAKI-1 is 32.6 µM (inactive); in the test on COLO 205 it was 23.5 µM (inactive); in the test with DU-145 it was 41.3 µM (inactive); in the test with HCC 2998 it was 28.7 µM (inactive); with HCT-15 it was 40.2 µM; in the test with K562, 32.8 µM (inactive). The GI50 in the test on KM12 was 30.8 µM (inactive); in the test on MDA-MB-231, 12.5 µM (inactive); in the test with MDA-N, 20 µM (inactive); with OVCAR-4, 46.6 µM (inactive); in the test with OVCAR-8, 28.8 µM (inactive); with RXF 393 it was 19.4 µM (inactive). Further, the GI50 with SF-295 is 24.5 µM (inactive); in the test with SK-MEL-28 it was 28.1 µM (inactive); in the test on SNB-75, 21.4 µM (inactive); with SR, 24.8 µM (inactive); in the test on SW-620 it was 27.1 µM (inactive); with U-251, 29.6 µM (inactive).

For the compound `CC[C@@]1(O)C(=O)OCc2c1cc1n(c2=O)Cc2c-1nc1ccccc1c2/C=N\NC(=O)C(N)CO` (some centres undefined), the GI50 in the test with CAKI-1 is 0.408 µM (active); with COLO 205, 32.1 µM (inactive); in the test with DU-145, 0.379 µM (active); with HCC 2998, 12.1 µM (inactive); in the test on HCT-15, 4.1 µM; in the test on K562, 1.05 µM (active). The GI50 in the test on KM12 was 5.92 µM (inactive); in the test with MDA-MB-231, 28.4 µM (inactive); with MDA-N, 6.52 µM (inactive); with OVCAR-4 it was 14.2 µM (inactive); in the test on OVCAR-8, 0.596 µM (active); in the test with RPMI-8226, 1.13 µM (inactive). Also, the GI50 was 1.14 µM (inactive) in the test with RXF 393; 0.505 µM (active) in the test with SF-295; 19.2 µM (inactive) in the test on SK-MEL-28; 0.202 µM (active) in the test with SNB-19; 0.0386 µM (active) with SR; 1.62 µM (inactive) in the test with SW-620. Besides, in the test with U-251, the GI50 is 0.232 µM (active).

These data come from ChEMBL document CHEMBL1201862, “PubChem BioAssay data set” (2004).
